Format in all cases: biochemical
Assay [1] has as its system HSD1 enzyme that is expressed in rabbit placenta tissue. Kind of assay: Inhibition of E1 to E2 conversion in rabbit placenta tissue homogenate. Conditions: compound 100 nM, 30 nM estrone, 1 mM β-NADPH, 30 min. As to the method:
The assay is based on an enzymatic reaction where HSD1 enzyme that is expressed in rabbit placenta tissue converts its natural substance estrone (E1) to estradiol (E2) in the presence of a co-factor β-NADPH.
Homogenization of rabbit placenta tissue: Weight a piece of the frozen tissue into a Precellys ck28 bead tube. Add buffer solution (20 mM KH2PO4 with 1 mM EDTA, pH 7.4) in 1:2 ratio (e.g. 300 mg of tissue:600 μl reaction buffer solution). Insert the bead tubes to homogenizer and homogenize 2×30 s. 6000 rpm.
Centrifugated 5 min., 2600 rpm at +4° C. and collect supernatant. Aliquots of homogenate are stored in −80° C.
Assay—Inhibition of E1 to E2 conversion in rabbit placenta tissue: The reaction takes place in a buffer solution (20 mM KH2PO4 with 1 mM EDTA, pH 7,4), including appropriate amount of rabbit placenta homogenate, co-factor (1 mM β-NADPH), Substrate (30 nM estrone), labelled substrate as tracer (5 nM [^3H]-estrone), and the potential inhibitor at concentrations 1 μM or 0.1 μM. Inhibitor stock solutions were prepared in DMSO. Final concentration of DMSO was adjusted to 1% in all samples. During a 30-minute incubation part of the estrone is converted to estradiol. The reaction is stopped by lowering the pH to 1 with 10% trichloro acetic acid (TCA). The substrate and conversion products are analyzed by HPLC and a Scintillation counter analyzer. Total radioactivity for estrone and estradiol were determined in each sample and percent conversion of estrone to estradiol was calculated according to the following formula:
% conversion=100×{(cpm estradiol in sample with inhibitor)/[(cpm estrone in sample with inhibitor)+(cpm estradiol in sample with inhibitor)]}/{(cpm estradiol in sample without inhibitor)/[(cpm estrone in sample without inhibitor)+(cpm estradiol in sample without inhibitor)]}.
(§1) Percent inhibition was calculated followingly: % inhibition=100−% conversion.

In assay [2] the target is T1, recombinant human 17β-HSD1 (Homo sapiens, UniProt P14061).
T1 construct: made in house; host or cells: Sd9 (Sf9) insect cells, baculovirus (Bac to Bac Expression System)
T1 sequence (P14061 1-328): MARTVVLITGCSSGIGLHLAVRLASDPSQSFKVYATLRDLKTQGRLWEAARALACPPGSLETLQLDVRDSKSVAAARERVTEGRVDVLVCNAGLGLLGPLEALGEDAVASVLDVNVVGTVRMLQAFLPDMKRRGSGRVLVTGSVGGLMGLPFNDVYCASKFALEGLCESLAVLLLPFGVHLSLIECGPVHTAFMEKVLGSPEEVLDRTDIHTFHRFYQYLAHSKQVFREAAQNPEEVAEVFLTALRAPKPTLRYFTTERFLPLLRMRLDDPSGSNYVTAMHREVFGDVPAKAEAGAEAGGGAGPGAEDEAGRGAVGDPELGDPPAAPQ
The experiment in a line: Inhibition of recombinant human 17β-HSD1 (estrone to estradiol conversion, HPLC/radioactivity). Conditions: compound 100 nM; 30 nM estrone, 1 mM NADPH, 30 min RT. The protocol: 17β-HSD1 production and isolation: Recombinant baculovirus was generated by the “Bac to Bac Expression System” (Invitrogen). Recombinant bacmid was transfected to Sd9 insect cells using “Cellfectin Reagent” (Invitrogen). 60 h later cells were harvested; the microsomal fraction was isolated as described by Puranen, T. J., Poutanen, M. H., Peltoketo, H. E., Vihko, P. T. and Vihko, R. K. (1994) Site-directed mutagenesis of the putative active site of human 17 β-hydroxysteroid dehydrogenase type 1. Biochem. J. 304: 289-293. Aliquots were stored frozen until determination of enzymatic activity.
Assay—Inhibition of recombinant human 17β-HSD1: Recombinant protein (1 μg/ml) was incubated in 20 mM KH2PO4 pH 7.4 with 30 nM estrone (including 800 000 cpm/ml of ^3H-estrone) and 1 mM NADPH for 30 min at RT, in the presence of the potential inhibitor at concentrations 1 μM or 0.1 μM. Inhibitor stock solutions were prepared in DMSO. Final concentration of DMSO was adjusted to 1% in all samples. The enzyme reaction was stopped by addition of 10% trichloroacetic acid (final concentration). Samples were centrifuged in a microtiter plate at 4000 rpm for 10 min. Supernatants were applied to reverse phase HPLC on a Waters Symmetry C18 column, equipped with a Waters Sentry Guard column. Isocratic HPLC runs were performed at RT at a flow rate of 1 ml/min in acetonitrile:water 48:52 as running solvent. Radioactivity was monitored in the eluate by a Scintillation Analyzer. Total radioactivity for estrone and estradiol were determined in each sample and percent conversion of estrone to estradiol was calculated according to the following formula:
% conversion=100×{(cpm estradiol in sample with inhibitor)/[(cpm estrone in sample with inhibitor)+(cpm estradiol in sample with inhibitor)]}/{[(cpm estradiol in sample without inhibitor)/[(cpm estrone in sample without inhibitor)+(cpm estradiol in sample without inhibitor)]}.
as §1

For assay [3], the target named is T2, recombinant human 17β-HSD2 (Homo sapiens, UniProt P37059).
T2 construct: made in house; host or cells: Sd9 (Sf9) insect cells, baculovirus (Bac to Bac Expression System)
T2 sequence (P37059 1-387): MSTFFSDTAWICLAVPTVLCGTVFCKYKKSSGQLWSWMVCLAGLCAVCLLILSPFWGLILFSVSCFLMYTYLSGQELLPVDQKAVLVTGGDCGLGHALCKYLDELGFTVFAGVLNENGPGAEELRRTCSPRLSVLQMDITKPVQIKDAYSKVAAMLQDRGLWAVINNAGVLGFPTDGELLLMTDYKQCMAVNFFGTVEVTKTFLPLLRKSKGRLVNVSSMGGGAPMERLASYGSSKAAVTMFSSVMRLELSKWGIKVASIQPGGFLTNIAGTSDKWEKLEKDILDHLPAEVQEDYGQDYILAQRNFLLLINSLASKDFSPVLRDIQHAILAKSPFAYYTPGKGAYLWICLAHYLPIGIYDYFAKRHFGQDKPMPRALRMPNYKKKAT
Kind of assay: Inhibition of recombinant human 17β-HSD2 (estradiol to estrone conversion, HPLC/radioactivity). Conditions: compound 1 μM; 50 nM estradiol, 1 mM NADH, 30 min RT. As to the method: 17β-HSD2 production and isolation: Similarly to 173-HSD1 the Recombinant baculovirus was generated by the “Bac to Bac Expression System” (Invitrogen). Recombinant bacmid was transfected to Sd9 insect cells using “Cellfectin Reagent” (Invitrogen). 60 h later cells were harvested and supernatant were fractionated by the following protocol: • cells were dissolved into 40 ml of A-buffer (40 mM TRIS, pH8.0, 20% glycerol, 20 μM NAD, 0.4 mM PMSF, 150 mM NaCl, 0.5% dodecyl-β-maltoside+protease inhibitor cocktail) • cells were sonicated • lysate was incubated on ice for 15 min • lysate was centrifuged 5000 rpm 15 min, +4° C. • centrifugation of the supernatant 180 000 g 30 min, +4° C. • pellet was dissolved into 8 ml of A-buffer • not resuspended material was removed by centrifugation 5000 rpm 15 min, +4° C. • the clear supernatant was divided into 100 μl aliquots and were stored frozen until determination of enzymatic activity.
The amount of 173-HSD2 was analysed by immunoblotting and total protein concentration of each extract batch was determined.
Assay—Inhibition of recombinant human 17β-HSD2: Recombinant protein (4 μg/ml) was incubated in 20 mM KH2PO4 pH 8.5 with 50 nM estradiol (including 800 000 cpm/ml of ^3H-estradiol) and 1 mM NADH for 30 min at RT, in the presence of the potential inhibitor at concentrations 1 μM or 0.1 μM. Inhibitor stock solutions were prepared in DMSO. Final concentration of DMSO was adjusted to 1% in all samples. The enzyme reaction was stopped by addition of 10% trichloroacetic acid (final concentration). Samples were centrifuged in a microtiter plate at 4000 rpm for 10 min. Supernatants were applied to reverse phase HPLC on a Waters Symmetry C18 column, equipped with a Waters Sentry Guard column. Isocratic HPLC runs were performed at RT at a flow rate of1 ml/min in acetonitrile:water 48:52 as running solvent. Radioactivity was monitored in the eluate by a Scintillation Analyzer. Total radioactivity for estrone and estradiol were determined in each sample and percent conversion of estradiol to estrone was calculated according to the following formula:
% conversion=100×{(cpm estrone in sample with inhibitor)/[(cpm estradiol in sample with inhibitor)+(cpm estrone in sample with inhibitor)]}/{[(cpm estrone in sample without inhibitor)/[(cpm estradiol in sample without inhibitor)+(cpm estrone in sample without inhibitor)]}.
as §1

One may read the inhibition as the drop in the measured response relative to a control, in per cent. For `C[C@]12CCC3c4cccc(F)c4CCC3C1[C@H](CCC(=O)Nc1ccc(C#N)cn1)c1c[nH]nc12` (stereo partly drawn) [Compound 3, N-(5-Cyanopyridin-2-yl)-3-((8aS,12S)-3-fluoro-8a-methyl-1,2,6b,7,8,8a,10,12,12a,12b-decahydronaphtho[2′,1′:4,5]indeno[1,2-c]pyrazol-12-yl)propanamide], the “Rabbit placenta inhibition % @100 nM” value in assay [1] came to 54%. For the same compound, the inhibition at 0.1 µM in assay [2] was 98%. In assay [3], the inhibition at 1 µM was found to be 9%.

In the case of `COc1ccc(NC(=O)CC[C@@H]2c3c[nH]nc3[C@@]3(C)CCC4c5cccc(F)c5CCC4C23)nn1` (stereo partly drawn) [Compound 6, 3-((8aS,12S)-3-fluoro-8a-methyl-1,2,6b,7,8,8a,10,12,12a,12b-decahydronaphtho[2′,1′:4,5]indeno[1,2-c]pyrazol-12-yl)-N-(6-methoxypyridazin-3-yl)propanamide], the “Rabbit placenta inhibition % @100 nM” value in assay [1] is 86%. Also, the inhibition at 0.1 µM in assay [2] stood at 93%. Also, the inhibition at 1 µM in assay [3] turned out to be 8%.

Turning to `C[C@]12CCC3c4cccc(F)c4CCC3C1[C@H](CCC(=O)Nc1ccc(F)cn1)c1c[nH]nc12` (stereo partly drawn) [Compound 12, 3-((8aS,12S)-3-fluoro-8a-methyl-1,2,6b,7,8,8a,10,12,12a,12b-decahydronaphtho[2′,1′:4,5]indeno[1,2-c]pyrazol-12-yl)-N-(5-fluoropyridin-2-yl)propanamide], the “Rabbit placenta inhibition % @100 nM” value in assay [1] turned out to be 46%. Further, in assay [2], the inhibition at 0.1 µM is 92%. Moreover, the inhibition at 1 µM in assay [3] was 5%.

`Cc1ccnc(NC(=O)CC[C@@H]2c3c[nH]nc3[C@@]3(C)CCC4c5cccc(F)c5CCC4C23)c1` (stereo partly drawn) [Compound 27, 3-((8aS,12S)-3-fluoro-8a-methyl-1,2,6b,7,8,8a,10,12,12a,12b-decahydronaphtho[2′,1′:4,5]indeno[1,2-c]pyrazol-12-yl)-N-(4-methylpyridin-2-yl)propanamide]: the “Rabbit placenta inhibition % @100 nM” value in assay [1] turned out to be 55%. Further, the inhibition at 0.1 µM in assay [2] was found to be 96%. The inhibition at 1 µM in assay [3] was 2%.

Consider `CN(CC1CC1)C(=O)CC[C@@H]1c2c[nH]nc2[C@@]2(C)CCC3c4cccc(F)c4CCC3C12` (stereo partly drawn) [Compound 60, N-(cyclopropylmethyl)-3-((8aS,12S)-3-fluoro-8a-methyl-1,2,6b,7,8,8a,10,12,12a,12b-decahydronaphtho[2′,1′:4,5]indeno[1,2-c]pyrazol-12-yl)-N-methylpropanamide], for which the “Rabbit placenta inhibition % @100 nM” value in assay [1] is 16%. Moreover, the inhibition at 0.1 µM in assay [2] was 93%. Moreover, the inhibition at 1 µM in assay [3] is 9%.

Turning to `CC(C)(C)NC(=O)CC[C@@H]1c2c[nH]nc2[C@@]2(C)CCC3c4cccc(F)c4CCC3C12` (stereo partly drawn) [Compound 72, N-(tert-butyl)-3-((8aS,12S)-3-fluoro-8a-methyl-1,2,6b,7,8,8a,10,12,12a,12b-decahydronaphtho[2′,1′:4,5]indeno[1,2-c]pyrazol-12-yl)propanamide], the inhibition at 0.1 µM in assay [2] is 93%. Further, the inhibition at 1 µM in assay [3] is 2%.

As for `C[C@]12CCC3c4ccc(F)cc4CCC3C1[C@H](CCC(=O)N1CCCC1)c1c[nH]nc12` (stereo partly drawn) [Compound 117, 3-((8aS,12S)-4-fluoro-8a-methyl-1,2,6b,7,8,8a,10,12,12a,12b-decahydronaphtho[2′,1′:4,S]indeno[1,2-c]pyrazol-12-yl)-1-(pyrrolidin-1-yl)propan-1-one], the inhibition at 0.1 µM in assay [2] came out at 73%. The inhibition at 1 µM in assay [3] is 2%.

Regarding `C[C@]12CCC3c4ccccc4CCC3C1[C@H](CCC(=O)N1CCOCC1)c1c[nH]nc12` (stereo partly drawn) [Compound 249, 3-((8aS,12S)-8a-methyl-1,2,6b,7,8,8a,10,12,12a,12b-decahydronaphtho[2′,1′:4,5]indeno[1,2-c]pyrazol-12-yl)-1-morpholinopropan-1-one], the inhibition at 0.1 µM in assay [2] amounted to 59%. Besides, the inhibition at 1 µM in assay [3] came to 7%.

`C[C@]12CCC3c4ccccc4CCC3C1[C@H](CCC(=O)Nc1ncc(F)cc1F)c1c[nH]nc12` (stereo partly drawn) [Compound 261, N-(3,5-difluoropyridin-2-yl)-3-((8aS,12S)-8a-methyl-1,2,6b,7,8,8a,10,12,12a,12b-decahydronaphtho[2′,1′:4,5]indeno[1,2-c]pyrazol-12-yl)propanamide]: the inhibition at 0.1 µM in assay [2] was 50%. For the same compound, the inhibition at 1 µM in assay [3] amounted to 9%.

On to `C[C@]12CCC3c4ccccc4CCC3C1[C@H](CCC(=O)Nc1ncccc1F)c1c[nH]nc12` (stereo partly drawn) [Compound 264, N-(3-fluoropyridin-2-yl)-3-((8aS,12S)-8a-methyl-1,2,6b,7,8,8a,10,12,12a,12b-decahydronaphtho[2′,1′:4,5]indeno[1,2-c]pyrazol-12-yl)propanamide], for which the inhibition at 0.1 µM in assay [2] was 54%. The inhibition at 1 µM in assay [3] is 4%.
